The values that follow come from patent publication US20220298213A1, “IN VIVO ENGINEERED CEREBLON PROTEIN” (Vividion Therapeutics, Inc., priority 2018, published 2022).

Each structure is given as a SMILES string.

This assay addresses T1, CRBN_C287 (Homo sapiens, UniProt Q96SW2).
T1 construct: endogenous in cells; host or cells: cell lysate
Kind of assay: CRBN C287 inhibition, probe labeling in lysate (Example 42). The class given is binding. The conditions noted are these: for inhibition at 500 µM: lysate, 1 h, read-out: % inh @ 500 uM (CRBN_C287, lysate 1 h); for IC50: TE50, CRBN_C287, lysate 1 h; for CRBN_C287 inhibition, result in words: CRBN_C287, lysate 1 h. On the procedure:
The following 96-well sample prep protocol was used for sample preparation.
Cells were resuspended in cold PBS on ice and sonicated with a probe sonicator to achieve lysis. 200 μL of lysate containing 5 mg/ml proteome was treated with 2 μL of 100× compound stock in a 2-mL deep-well plate. The treated lysate was subsequently incubate at 25° C. for 1 hr with shaking at 600 rpm. The treated lysate was further incubated with 2 μL of 10 mM desthiobiotin iodoacetamide probe at 25° C. for 1 hr with shaking at 600 rpm. […] 1.7 mL ice-cold acetone was added to each well and incubated at −20° C. for 2 hr, followed by max speed (4200 rpm) spin for 45 min. Acetone was then decanted and the plates were blotted to remove acetone. The plates were then dried in open air for 20 minutes. After drying, the plates were then covered with foil seal and stored at −80° C. overnight.
The next day, samples were re-suspended in 90 μL of solution of 9M urea, 50 mM ammonium bicarbonate and 10 mM DTT by incubating at 65° C. for 20 min with shaking at 1500 rpm. […] The samples were then incubated at 37° C. for 30 min with shaking at 600 rpm.
ZEBA desalting plates were equilibrated 4 times using 250 μL of 2M urea, 50 mM ammonium bicarbonate solution followed by centrifugation at 1500 rpm for 2 minutes. After equilibration was complete, samples were applied to ZEBA desalting plate and spin at 1500 rpm for 2 min on top of 1 mL 96-well deep-well collection plate to buffer exchange samples. 4 μL of solution containing 25 mM CaCl2 and 0.25 mg/mL trypsin was added to the plate and the plate was then incubated at 37° C. for 2 hrs with shaking at 600 rpm. 300 μL of solution containing 5% high-capacity streptavidin agarose slurry in 25 mM Tris-HCl pH 7.5, 150 mM NaCl, and 0.1% NP-40 then added. The plate was incubated at 25° C. for 2 hrs with shaking at 600 rpm. Samples were transferred to 25 μm filter plate and spin at 1000 rpm for 2 min. Samples were then washed 3 times with 0.75 mL of wash buffer (25 mM Tris-HCl pH 7.5, 150 mM NaCl, and 0.1% NP-40) followed by washing 3 times with 0.75 mL PBS, and then 4 times with 0.75 mL water. After the washing step, samples were eluted into polypropylene 96-well plate by addition of 250 μL of 50% MeCN/water, 0.1% formic acid and allowed to gravity drip for 10 min, followed by centrifugation at 1000 rpm for 2 min. Speedvac was used to dry the plates at about 45° C. for […]. Then the plates were covered with foil seal and stored at −20° C.
Then add 30 μL of 0.1% formic acid solution was added and the plate was covered and incubated at 42° C. for 10 minutes with shaking at 600 rpm. Seal plate was then sealed with a 96-well silicon mat for analysis.

T1 sequence (Q96SW2 whole entry): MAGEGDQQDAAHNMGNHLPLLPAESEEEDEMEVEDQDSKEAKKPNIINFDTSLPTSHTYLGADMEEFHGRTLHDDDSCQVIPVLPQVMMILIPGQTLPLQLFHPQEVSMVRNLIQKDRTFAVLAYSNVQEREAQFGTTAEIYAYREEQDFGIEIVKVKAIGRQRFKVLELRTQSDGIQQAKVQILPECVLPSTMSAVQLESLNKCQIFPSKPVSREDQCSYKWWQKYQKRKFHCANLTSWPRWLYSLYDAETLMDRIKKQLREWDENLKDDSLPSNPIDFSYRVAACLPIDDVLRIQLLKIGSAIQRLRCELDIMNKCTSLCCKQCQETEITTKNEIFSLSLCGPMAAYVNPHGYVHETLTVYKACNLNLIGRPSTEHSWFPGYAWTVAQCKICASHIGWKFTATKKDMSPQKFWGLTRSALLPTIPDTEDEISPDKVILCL

In the case of `C#CC(=O)N1CCC(Oc2cccc(-c3ccccc3OC)c2)CC1` [Example 9], the inhibition at 500 µM came out at 88.8%.
Same read-out and setting: as for `C=CC(=O)N1CCC(Oc2cc(Cl)cc(-c3ccccc3)c2)CC1` [Example 6], the figure is 72.2%.
In general, IC50 refers to the midpoint of a concentration-inhibition curve. For `C=CC(=O)N1CCC(Oc2cc(C#N)cc(-c3ccccc3OC)c2)C(C)C1` (single isomer, unassigned) [Example 33, 5-((1-acryloyl-3-methylpiperidin-4-yl)oxy)-2′-methoxy-[1,1′-biphenyl]-3-carbonitrile], the IC50 is 4.66 µM.
The same measure, in the same setting: as for `C=CC(=O)N1CCC(Oc2cc(-c3ccccc3OC)cc(C#N)n2)CC1` [Example 28, 6-((1-acryloylpiperidin-4-yl)oxy)-4-(2-methoxyphenyl)picolinonitrile], the figure is 80 µM.
As for `C=CC(=O)N1CCC(Oc2cccc(-c3ccccc3O)c2)CC1` [Example 3], the inhibition at 500 µM is 48.9%.
With `C=CC(=O)N1CCC(Oc2cc(C#N)cc(-c3ccccc3OC)c2)C(C)C1` (single isomer, unassigned) [Example 34, 5-((1-acryloyl-3-methylpiperidin-4-yl)oxy)-2′-methoxy-[1,1′-biphenyl]-3-carbonitrile], inhibition was half-maximal at 8.97 µM (IC50).
On to `C=CC(=O)N1CCC(Oc2cccc(-c3ccccc3OC)c2)CC1` [Example 7], for which the inhibition at 500 µM worked out at 91.2%.
In the case of `C=CC(=O)N1CCC(Sc2cccc(-c3ccccc3OC)c2)CC1` [Example 37, 1-(4-((2′-methoxy-[1,1′-biphenyl]-3-yl)thio)piperidin-1-yl)prop-2-en-1-one], the IC50 was 31 µM.
Take `C=CC(=O)N1CC[C@@H](Oc2cc(C#N)cc(-c3ccccc3OC)c2)[C@H](F)C1` [Example 30, 5-(((3R,4R)-1-acryloyl-3-fluoropiperidin-4-yl)oxy)-2′-methoxy-[1,1′-biphenyl]-3-carbonitrile]: it took 0.4 µM to reach half-maximal inhibition (IC50).
`CN(C)C/C=C/C(=O)N1CCC(Oc2cccc(-c3ccccc3)c2)CC1` [Example 10]: the inhibition at 500 µM was 52.4%.
Same read-out and setting: as for `COc1ccccc1-c1cccc(OC2CCN(C(=O)/C=C/CN(C)C)CC2)c1` [Example 11], the figure is 92.9%; as for `C=CC(=O)N1CCC(Oc2cc(C#N)cc(-c3ccccc3OC)c2)CC1` [Example 14], 94.5%.
For the compound `C=CC(=O)N1CCC(Oc2ccc(-c3ccc(S(C)(=O)=O)cc3)cc2)CC1`, the “CRBN_C287 inhibition, result in words” value is reported as “No activity”.
In the case of `C=CC(=O)N1C2CCC1CC(Oc1cc(C#N)cc(-c3ccccc3OC)c1)C2` [Example 38, 5-(((1R,3s,5S)-8-acryloyl-8-azabicyclo[3.2.1]octan-3-yl)oxy)-2′-methoxy-[1,1′-biphenyl]-3-carbonitrile], the inhibition at 500 µM was 78%.
Same read-out and setting: under `C#CC(=O)N1CCC(Oc2cccc(-c3ccccc3)c2)CC1` [Example 8] stands 76.8%.
With `C=CC(=O)N1CCC(Oc2cc(C#N)cc(-c3ccccc3CC)c2)CC1` [Example 15], the IC50 was 22.2 µM.
Same read-out and setting: as for `C=CC(=O)N1CC[C@H](Oc2cc(C#N)cc(-c3ccccc3OC)c2)[C@@H](F)C1` [Example 29, 5-(((3S,4S)-1-acryloyl-3-fluoropiperidin-4-yl)oxy)-2′-methoxy-[1,1′-biphenyl]-3-carbonitrile], the figure is 1.25 µM; as for `C=CC(=O)N1CCC(Oc2cc(-c3ccccc3OC)cnn2)CC1` [Example 27, 1-(4-((5-(2-methoxyphenyl)pyridazin-3-yl)oxy)piperidin-1-yl)prop-2-en-1-one], 7.5 µM.
As to `C=CC(=O)N1CCC(Oc2cc(C#N)cc(-c3ccccc3OC)c2)C(C)C1` (single isomer, unassigned) [Example 35, 5-((1-acryloyl-3-methylpiperidin-4-yl)oxy)-2′-methoxy-[1,1′-biphenyl]-3-carbonitrile], it took 9.8 µM to reach half-maximal inhibition (IC50).
As for `C=CC(=O)N1CCC(Oc2cccc(-c3ccc(F)cc3OC)c2)CC1` [Example 1, 1-(4-((4′-fluoro-2′-methoxy-[1,1′-biphenyl]-3-yl)oxy)piperidin-1-yl)prop-2-en-1-one], the inhibition at 500 µM was found to be 74.8%.
`C=CC(=O)N1CCC(Oc2cc(OC(F)(F)F)cc(-c3ccccc3OC)c2)CC1` [Example 41, 1-(4-((2′-methoxy-5-(trifluoromethoxy)-[1,1′-biphenyl]-3-yl)oxy)piperidin-1-yl)prop-2-en-1-one] came in with an IC50 of 31 µM.
As for `C=CC(=O)N1CCC(Oc2cc(C(N)=O)cc(-c3ccccc3OC)c2)CC1` [Example 22], the inhibition at 500 µM came to 95.2%.
On the same count and under the same terms, under `C=CC(=O)N1CCC(Oc2cc(C(=O)NC)cc(-c3ccccc3OC)c2)CC1` [Example 26] stands 77.4%.
`C=CC(=O)N1[C@@H]2CC[C@H]1C[C@H](Oc1cc(C(N)=O)cc(-c3ccccc3OC)c1)C2` [Example 39, 5-(((1R,3s,5S)-8-acryloyl-8-azabicyclo[3.2.1]octan-3-yl)oxy)-2′-methoxy-[1,1′-biphenyl]-3-carboxamide] showed an IC50 of 53 µM. In other words, the double-digit micromolar range.
On the same count and under the same terms, as for `C=CC(=O)N1CC[C@@H](Oc2cc(C#N)cc(-c3ccccc3OC)c2)[C@@H](F)C1` [Example 32, 5-(((3S,4R)-1-acryloyl-3-fluoropiperidin-4-yl)oxy)-2′-methoxy-[1,1′-biphenyl]-3-carbonitrile], the figure is 1.49 µM.
As for `C=CC(=O)N1CCC(Oc2cc(Cl)cc(-c3ccccc3OC)c2)CC1` [Example 5], the inhibition at 500 µM came out at 88.5%.
With `C=CC(=O)N1CCC(Oc2cc(C#N)cc(-c3ccccc3)c2)CC1` [Example 13], the inhibition at 500 µM is 81.3%.
Same read-out and setting: as for `C=CC(=O)N1CCC(Oc2cc(-c3ccccc3OC)ccc2C(N)=O)CC1` [Example 21], the figure is 64.6%; as for `C=CC(=O)N1CCC(Oc2cc(OC)cc(-c3ccccc3OC)c2)CC1` [Example 24], 89.3%.
Still for that read-out and setting: under `C=CC(=O)N1CCC(Oc2cccc(-c3ccccc3OC)c2Cl)CC1` [Example 18] stands 60.4%; under `C=CC(=O)N1CCC(Oc2cccc(-c3ccccc3)c2C#N)CC1` [Example 19], 68.2%.
`COc1ccccc1-c1cc(C#N)cc(OC2CCN(C(=O)/C(C#N)=C/C(C)C)CC2)c1` [Example 16] showed an IC50 of 0.12 µM. This lies in the sub-micromolar range.
Regarding `C=CC(=O)N1CCC(Oc2cc(OC)cc(-c3ccccc3)c2)CC1` [Example 23], the inhibition at 500 µM is 91.1%.
Still for that read-out and setting: as for `COc1ccccc1-c1cc(C#N)cc(OC2CCN(C(=O)/C=C/CN3CCOCC3)CC2)c1` [Example 12], the figure is 87.2%.
Consider `C=CC(=O)N1CCn2c(nnc2C(F)(F)F)C1`, for which the “CRBN_C287 inhibition, result in words” value is listed as “No activity”.
The compound `C#CCOCCOCCOCCOc1ccc(OC)c(-c2cc(C#N)cc(OC3CCN(C(=O)C=C)CC3)c2)c1` [Example 40, 3-[2-methoxy-5-[2-[2-(2-prop-2-ynoxyethoxy)ethoxy]ethoxy]phenyl]-5-[(1-prop-2-enoyl-4-piperidyl)oxy]benzonitrile] returned an IC50 of 2.57 µM.
On the same count and under the same terms, under `C=CC(=O)N1CC[C@H](Oc2cc(C#N)cc(-c3ccccc3OC)c2)[C@H](F)C1` [Example 31, 5-(((3R,4S)-1-acryloyl-3-fluoropiperidin-4-yl)oxy)-2′-methoxy-[1,1′-biphenyl]-3-carbonitrile] stands 0.29 µM.
With `C=CC(=O)N1CCC(Oc2cccc(-c3ccccc3OC)c2C#N)CC1` [Example 20], the inhibition at 500 µM is 57.6%.
The compound `C=CC(=O)N1CC(Oc2cc(C#N)cc(-c3ccccc3OC)c2)C1` [Example 36, 5-((1-acryloylazetidin-3-yl)oxy)-2′-methoxy-[1,1′-biphenyl]-3-carbonitrile] registered an IC50 of 0.12 µM.
